# Measurements published in patent publication US20070048738A1, “Methods and compositions for diagnosis, staging and prognosis of prostate cancer” (Mayo Foundation for Medical Education and Research, priority 2003, published 2007).
# How the values were obtained:
# [1] = tested on: ZNF185 5′ CpG dinucleotides of genomic DNA; assay: Methylation specific PCR (MSP) of ZNF185 DNA in prostate cell lines with or without 5-Aza-CdR; assay type: cell-based, human; conditions: prostate cancer cell lines with 5-Aza-CdR treatment versus without
# Procedure: DNA isolation and Bisulfite modification. Genomic DNA was obtained from metastatic, primary, matched benign prostatic tissues and the above mentioned prostate cancer cell lines treated with 5-Aza-CdR, using Wizard® genomic DNA purification kit according to the manufacturer's protocol (Promega, Madison, Wis.). Genomic DNA (100 ng) was modified by sodium bisulfite treatment by converting unmethylated, but not methylated, cytosines to uracil as described previously (Herman et al., Proc. Natl. Acad. Sci. USA 93:9821-9826, 1996). DNA samples were then purified using the spin columns (Qiagen), and eluted in 50 μl of distilled water. Modification was completed by treatment with NaOH (0.3 M final concentration) for 5 min at room temperature, followed by ethanol precipitation. […]
# Methylation Specific PCR (MSP). DNA methylation patterns within the gene were determined by chemical modification of unmethylated cytosine to uracil and subsequent PCR as described previously (Esteller et al., Cancer Res. 61:3225-3229, 2001), using primers specific for either methylated or the modified unmethylated sequences.
# Two sets of primers were designed corresponding to the genomic positions around 210 and 335. […] One (1) μl of the PCR product was directly loaded onto DNA 500 lab chip and analyzed on Agilent 2100 Bioanalyzer (Agilent Technologies, Palo Alto, Calif.).
# FLJ14084 = FLJ14084 mRNA expression in prostate cancer cell lines after 5-Aza-CdR treatment (TaqMan real-time PCR); conditions: all three prostate cancer cells (LAPC4, LNCaP, PC3); 6 μM 5-Aza-CdR for 6 days
# TU3A = TU3A mRNA expression in prostate cancer cell lines after 5-Aza-CdR treatment (TaqMan real-time PCR); conditions: 6 μM 5-Aza-CdR for 6 days
# PRIMA1 = PRIMA1 mRNA expression in prostate cancer cell lines after 5-Aza-CdR treatment (TaqMan real-time PCR); conditions: 6 μM 5-Aza-CdR for 6 days
# SVIL = SVIL mRNA expression in prostate cancer cell lines after 5-Aza-CdR treatment (TaqMan real-time PCR); conditions: 6 μM 5-Aza-CdR for 6 days
# ZNF185 = ZNF185 mRNA expression in prostate cancer cell lines after 5-Aza-CdR treatment (Taqman real-time PCR); assay type: cell-based, human; conditions: LAPC4, LNCaP and PC3 prostate cancer cell lines; 6 μM 5-Aza-CdR for 6 days; versus untreated cells
# KIAA1210 = KIAA1210 mRNA expression in prostate cancer cell lines after 5-Aza-CdR treatment (TaqMan real-time PCR); conditions: LAPC4 and LNCaP cells; 6 μM 5-Aza-CdR for 6 days
compound,measurement,setting,value
"Nc1ncn([C@H]2C[C@H](O)[C@@H](CO)O2)c(=O)n1 [5-Aza-CdR, 5-aza-2′-deoxycytidine]",methylated and unmethylated ZNF185 bands by MSP,[1],reduction of the methylated band and increase of the unmethylated band
same,expression of FLJ14084 mRNA levels,FLJ14084,significant increase
same,TU3A expression levels,TU3A; LAPC4 and PC3 cells,not in LAPC4 and PC3 cells
same,TU3A expression levels,TU3A; LNCaP cells,significantly increased
same,expression of PRIMA1 mRNA levels,PRIMA1; LACaP cells (so in the source),not in LACaP
same,expression of PRIMA1 mRNA levels,PRIMA1; LAPC4 and PC3 cells,significant increase
same,expression of SVIL mRNA levels,SVIL; LACaP cells (so in the source),not in LACaP
same,expression of SVIL mRNA levels,SVIL; LAPC4 and PC3 cells,significant increase
same,increase in mRNA levels of ZNF185,ZNF185,~2.0 fold
same,KIAA1210 mRNA levels,KIAA1210,increased
